Values of other authors in patent US20220071922A1, “DELIVERY OF HEALTH BENEFITS THROUGH COMPONENT FORMULATION” (Clear Lake Research, LLC, priority 2018, published 2022).

What was measured:
CB2 receptors = CB2 receptors (Homo sapiens, UniProt P34972); details: estimated; times the affinity of CBD
[1] = applied topically
[2] = phytocannabinoids interact with oxygen; without nitrogen overlay

Sequence of CB2 receptors (P34972 whole entry): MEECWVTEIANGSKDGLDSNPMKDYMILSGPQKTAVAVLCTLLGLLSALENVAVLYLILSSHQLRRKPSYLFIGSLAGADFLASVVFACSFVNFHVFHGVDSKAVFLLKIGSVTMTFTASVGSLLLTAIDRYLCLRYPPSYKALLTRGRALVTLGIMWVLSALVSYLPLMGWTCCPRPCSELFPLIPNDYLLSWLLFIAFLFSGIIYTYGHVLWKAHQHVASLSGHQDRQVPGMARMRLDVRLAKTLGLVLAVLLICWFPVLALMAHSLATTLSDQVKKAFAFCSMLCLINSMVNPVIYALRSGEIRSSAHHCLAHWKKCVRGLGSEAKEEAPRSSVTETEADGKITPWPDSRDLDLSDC

Row | Structure (SMILES) | affinity relative to CBD (CB2 receptors) | time to significant pain relief impact [1] | shelf life [2]
1 | CCCCC/C=C\C/C=C\CCCCCCCC(=O)OC(CO)CO [2-Lineoleoyl-glycerol] | ~1,000 times |  | 
2 | CCCCCCCCCCCCCCCC(=O)OC(CO)CO [2-Palmitolyl-glycerol] | ~1,000 times |  | 
3 | C=C(C)[C@@H]1CCC(C)=C[C@H]1c1c(O)cc(CCCCC)cc1O [CBD, cannabidiol] |  | about 30 minutes | about six
